From patent US20120295935A1, “MIXED AMINAL PHARMACEUTICAL COMPOSITIONS AND USES THEREOF” (priority 2010, published 2012)
Entries after “also recorded” stand apart in the source; their conditions may differ.

What was measured:
[1] = tested on: MLO-A5 osteocyte cells; assay: mRNA levels by real-time PCR in osteocyte cells; format: cell-based; details: 100 nM-50 μM for 1-24 h
Procedure: Responses to Administration of Salubrinal—In vitro responses to salubrinal: In order to evaluate the effects of salubrinal, MC3T3 E1 osteoblast-like cells and MLO-A5 osteocyte cells (Barragan-Adjemian, C., et al., “Mechanism by which MLO-A5 late osteoblasts/early osteocytes mineralize in culture: similarities with mineralization of lamellar bone,” Calcif. Tissue Int. 79:340-353 (2006)) were incubated with salubrinal at 100 nM-50 μM for 1-24 h. The mRNA levels of the selected genes, TF4, ATF3, Osteocalcin (OCN), and CHOP, were determined by real-time PCR. […] In MC3T3 cells, for instance, the Osteocalcin mRNA level, which is regulated by ATF4 and Runx2 (Xiao et al. 2005), was elevated 11.8±0.2 fold at 10 μM salubrinal in 24 h.

[2] = tested on: C57BL/6 mice; assay: In vivo injection into intramedullary cavity of femora, BMD and BMC; design: species or system mouse
Procedure: Responses to Administration of Salubrinal—In vivo responses to salubrinal: In order to evaluate the effects of salubrinal in vivo, salubrinal was injected into an intramedullary cavity of the left femora of C57BL/6 mice and alterations in bone mineral density (BMD) and bone mineral content (BMC) were determined. There were 9 salubrinal treated mice as well as 9 placebo mice (injection of PBS). All mice received 4 injections of either salubrinal or PBS in the left femur, while the right femur was used as contralateral control. In four consecutive injections with a 0.5-inch #26-gauge needle and a Hamilton micro-syringe, the laterial side was used on the 1st and 3rd injetions and the medial side on the 2nd and 4th injections. An injection volume was 20 μl for salubrinal or PBS, and the salubrinal concentration was 50 μM. […] At the time of harvest (2 wks after the 1st injection), an increase in body weight in Salubrinal group (0.80±0.13 g) was higher than that in Placebo group (0.28±0.15 g; p<0.05). Harvested bone samples were analyzed with PIXImus (version 1.4, GE Medical System Lunar) for determination of BMD and BMC.

[3] = tested on: C57/BL/6 female mice; assay: Mouse tibia bone formation, ankle loading plus local salubrinal; format: in vivo
Procedure: Mouse tibia-bone formation: Twenty C57/BL/6 female mice (˜8 weeks, body weight ˜18 g) were employed to examine the combined effects of ankle loading and local administration of salubrinal to the tibia (Zhang P, et al., Salubrinal stimulates anabolic responses in mouse femora, 55th Ann Meeting ORS (2009)). Local administration was targeted into a bone marrow cavity from the proximal tibia. A total volume of 20 μl PBS was injected to the left hindlimb with or without 0.025 mg/kg (100 μM) salubrinal (Calbiochem) using a micro-syringe with a 0.5-inch #26-gauge needle (Worsham D N, et al., In vivo gene transfer into adult stem cells in unconditioned mice by in situ delivery of a lentiviral vector, Mol. Ther. 14:514-24 (2006); Zhu Y, et al., eIF-2a protects brainstem motoneurons in a murine model of sleep apnea, J. Neurosci. 28:2168-78 (2008)). In examination of the combined effects of mechanical loading and salubrinal administration, ankle loading was given for 5 consecutive days after administration of salubrinal on each day. The mouse was placed in an anesthetic induction chamber to cause sedation and then mask-anesthetized using 1.5% isoflurane. With a custom-made piezoelectric mechanical loader, loads were applied to the left ankle for 5 min/day in the lateral-medial direction. The loading frequency was 5 Hz, and the peak-to-peak force was 0.5 N (FIG. 12). The right hindlimb was used as a sham-loaded control (Zhang P, et al., Joint loading-driven bone formation and signaling pathways predicted from genome-wide expression profiles, Bone 44:989-998 (2009)).

[4] = ankle loading and salubrinal injection
[5] = tibia, 0.025 mg/kg (100 μM) plus ankle loading, 5 days

## O=C(/C=C/c1ccccc1)NC(NC(=S)Nc1cccc2cccnc12)C(Cl)(Cl)Cl (centres unmarked) [salubrinal]
[1]
  mRNA levels of the selected genes: did not show any significant alterations
[2]; femur, 20 μl 50 μM injection
  BMC vs contralateral control: trend to elevate; also recorded: Increased
  BMD vs contralateral control: Increased
[2]; injected femur, mean±s.e.m.
  BMD: 0.0456±0.0011 g/cm^2
[3]; [4]
  relative increase in BMC vs ankle loading alone: 1.5 fold
  relative increase in BMD vs ankle loading alone: 2.3 fold
[3]; [5]
  BMC: 0.0154 ± 0.0004 g
  BMD: 0.0443±0.0011 g/cm^2
